Reference: the OligoGym collection
HELM strings list units from the 5' end as sugar, base in round brackets, then linkage (d deoxyribose, r ribose, m 2'-O-methyl, p phosphodiester). Strings are as the collection lists them; they lack the last nucleoside at the 3' end of the tested compound. [moe] = 2'-O-(2-methoxyethyl) (MOE); [sp] = phosphorothioate linkage; [m5C] = 5-methylcytosine

molecular target: ATXN3; test: mouse, dose not given; conditions: ASO

Substance | 3 h FOB score
RNA1{[moe](G)[sp].[moe]([m5C])p.[moe]([m5C])p.[moe](A)p.[moe](A)[sp].d(T)[sp].d(A)[sp].d(T)[sp].d(T)[sp].d(T)[sp].d(A)[sp].d(T)[sp].d(A)[sp].d(G)[sp].d(G)[sp].[moe](T)p.[moe](G)p.[moe]([m5C])[sp].[moe](T)}$$$$ (last 3' nucleoside missing) | 3 score 0-7
RNA1{[moe](G)[sp].[moe](T)p.[moe](G)p.[moe]([m5C])p.[moe](T)[sp].d(A)[sp].d(T)[sp].d(A)[sp].d(A)[sp].d(T)[sp].d(T)[sp].d([m5C])[sp].d(T)[sp].d(T)[sp].d(G)[sp].[moe]([m5C])p.[moe](T)p.[moe](T)[sp].[moe]([m5C])}$$$$ (last 3' nucleoside missing) | 1.25 score 0-7
RNA1{[moe](T)[sp].[moe](A)p.[moe](A)p.[moe](T)p.[moe](A)p.[moe]([m5C])p.d(T)[sp].d(T)[sp].d(T)[sp].d(T)[sp].d(T)[sp].d([m5C])[sp].d([m5C])[sp].d(A)[sp].d(G)[sp].d([m5C])[sp].[moe]([m5C])p.[moe](T)[sp].[moe](T)}$$$$ (last 3' nucleoside missing) | 3 score 0-7
RNA1{[moe](G)[sp].[moe](T)p.[moe](T)p.[moe]([m5C])p.[moe]([m5C])p.d(A)[sp].d(G)[sp].d(A)[sp].d(T)[sp].d([m5C])[sp].d(A)[sp].d([m5C])[sp].d([m5C])[sp].d(A)[sp].d(T)[sp].[moe]([m5C])p.[moe](T)p.[moe](T)[sp].[moe](T)}$$$$ (last 3' nucleoside missing) | 3.5 score 0-7
RNA1{[moe](A)[sp].[moe](T)p.[moe](T)p.[moe]([m5C])p.[moe](T)[sp].d(T)[sp].d(G)[sp].d([m5C])[sp].d(T)[sp].d(T)[sp].d([m5C])[sp].d(A)[sp].d(A)[sp].d([m5C])[sp].d([m5C])[sp].[moe](A)p.[moe](T)p.[moe]([m5C])[sp].[moe](A)}$$$$ (last 3' nucleoside missing) | 0.375 score 0-7
RNA1{[moe]([m5C])[sp].[moe](T)p.[moe](G)p.[moe](T)p.[moe](A)[sp].d([m5C])[sp].d(A)[sp].d([m5C])[sp].d(T)[sp].d(T)[sp].d(T)[sp].d(T)[sp].d(A)[sp].d([m5C])[sp].d(A)[sp].[moe](T)p.[moe](T)p.[moe]([m5C])[sp].[moe]([m5C])}$$$$ (last 3' nucleoside missing) | 1 score 0-7
RNA1{[moe](G)[sp].[moe]([m5C])p.[moe](A)p.[moe](T)p.[moe](A)p.[moe](T)p.d(T)[sp].d(G)[sp].d(G)[sp].d(T)[sp].d(T)[sp].d(T)[sp].d(T)[sp].d([m5C])[sp].d(T)[sp].d([m5C])[sp].[moe](A)p.[moe](T)[sp].[moe](T)}$$$$ (last 3' nucleoside missing) | 3 score 0-7
RNA1{[moe](T)[sp].[moe]([m5C])p.[moe](A)[sp].[moe]([m5C])[sp].[moe](A)[sp].d(A)[sp].d(T)[sp].d(G)[sp].d(A)[sp].d([m5C])[sp].d([m5C])[sp].d([m5C])[sp].d(T)[sp].d(T)[sp].d(T)[sp].[moe](T)[sp].[moe]([m5C])p.[moe](T)[sp].[moe](T)}$$$$ (last 3' nucleoside missing) | 1.25 score 0-7
RNA1{[moe](A)[sp].[moe](G)p.[moe]([m5C])p.[moe]([m5C])p.[moe](A)[sp].d(A)[sp].d(T)[sp].d(A)[sp].d(T)[sp].d(T)[sp].d(T)[sp].d(A)[sp].d(T)[sp].d(A)[sp].d(G)[sp].[moe](G)p.[moe](T)p.[moe](G)[sp].[moe]([m5C])}$$$$ (last 3' nucleoside missing) | 1 score 0-7
RNA1{[moe](T)[sp].[moe](G)p.[moe]([m5C])p.[moe](T)p.[moe]([m5C])[sp].d(A)[sp].d(T)[sp].d(T)[sp].d(T)[sp].d(A)[sp].d(T)[sp].d(T)[sp].d([m5C])[sp].d(T)[sp].d([m5C])[sp].[moe](A)p.[moe](A)p.[moe](G)[sp].[moe](T)}$$$$ (last 3' nucleoside missing) | 0 score 0-7
RNA1{[moe](G)[sp].[moe](T)p.[moe](T)p.[moe](A)p.[moe](A)p.[moe](T)p.d(A)[sp].d([m5C])[sp].d(T)[sp].d(T)[sp].d(T)[sp].d(T)[sp].d(T)[sp].d([m5C])[sp].d([m5C])[sp].d(A)[sp].[moe](G)p.[moe]([m5C])[sp].[moe]([m5C])}$$$$ (last 3' nucleoside missing) | 1 score 0-7
RNA1{[moe]([m5C])[sp].[moe](A)p.[moe]([m5C])p.[moe]([m5C])p.[moe](A)[sp].d(T)[sp].d([m5C])[sp].d(T)[sp].d(T)[sp].d(T)[sp].d(G)[sp].d(A)[sp].d([m5C])[sp].d(A)[sp].d(A)[sp].[moe](G)p.[moe]([m5C])p.[moe](T)[sp].[moe](A)}$$$$ (last 3' nucleoside missing) | 1.25 score 0-7
RNA1{[moe](G)[sp].[moe]([m5C])p.[moe](A)[sp].[moe]([m5C])[sp].[moe]([m5C])[sp].d(A)[sp].d(T)[sp].d(A)[sp].d(T)[sp].d(A)[sp].d(T)[sp].d(A)[sp].d(T)[sp].d([m5C])[sp].d(T)[sp].[moe]([m5C])[sp].[moe](A)p.[moe](G)[sp].[moe](A)}$$$$ (last 3' nucleoside missing) | 0 score 0-7
RNA1{[moe](G)[sp].[moe](T)p.[moe](T)p.[moe](A)p.[moe](A)p.d(T)[sp].d(A)[sp].d([m5C])[sp].d(T)[sp].d(T)[sp].d(T)[sp].d(T)[sp].d(T)[sp].d([m5C])[sp].d([m5C])[sp].[moe](A)p.[moe](G)p.[moe]([m5C])[sp].[moe]([m5C])}$$$$ (last 3' nucleoside missing) | 1 score 0-7
RNA1{[moe](A)[sp].[moe]([m5C])p.[moe](T)p.[moe](A)p.[moe]([m5C])[sp].d([m5C])[sp].d(T)[sp].d(T)[sp].d(G)[sp].d([m5C])[sp].d(A)[sp].d(T)[sp].d(A)[sp].d([m5C])[sp].d(T)[sp].[moe](T)p.[moe](A)p.[moe](G)[sp].[moe]([m5C])}$$$$ (last 3' nucleoside missing) | 1.12 score 0-7
RNA1{[moe](T)[sp].[moe](G)p.[moe](T)p.[moe](T)p.[moe](A)[sp].d(A)[sp].d(T)[sp].d(A)[sp].d([m5C])[sp].d(T)[sp].d(T)[sp].d(T)[sp].d(T)[sp].d(T)[sp].d([m5C])[sp].[moe]([m5C])p.[moe](A)p.[moe](G)[sp].[moe]([m5C])}$$$$ (last 3' nucleoside missing) | 0 score 0-7
RNA1{[moe](G)[sp].[moe]([m5C])p.[moe]([m5C])p.[moe](A)p.[moe](T)p.d(T)[sp].d(A)[sp].d(A)[sp].d(T)[sp].d([m5C])[sp].d(T)[sp].d(A)[sp].d(T)[sp].d(A)[sp].d([m5C])[sp].[moe](T)p.[moe](G)p.[moe](A)[sp].[moe](A)}$$$$ (last 3' nucleoside missing) | 1 score 0-7
RNA1{[moe](G)[sp].[moe]([m5C])p.[moe](T)p.[moe]([m5C])p.[moe](A)p.[moe](T)p.d(T)[sp].d(T)[sp].d(A)[sp].d(T)[sp].d(T)[sp].d([m5C])[sp].d(T)[sp].d([m5C])[sp].d(A)[sp].d(A)[sp].[moe](G)p.[moe](T)[sp].[moe](A)}$$$$ (last 3' nucleoside missing) | 0 score 0-7
RNA1{[moe](A)[sp].[moe](T)p.[moe]([m5C])p.[moe](A)p.[moe]([m5C])[sp].d(T)[sp].d(G)[sp].d([m5C])[sp].d(A)[sp].d([m5C])[sp].d(A)[sp].d([m5C])[sp].d(T)[sp].d(T)[sp].d(T)[sp].[moe]([m5C])p.[moe]([m5C])p.[moe](T)[sp].[moe]([m5C])}$$$$ (last 3' nucleoside missing) | 0 score 0-7
RNA1{[moe](T)[sp].[moe](A)[sp].[moe](A)p.[moe](T)p.[moe](A)[sp].d([m5C])[sp].d(T)[sp].d(T)[sp].d(T)[sp].d(T)[sp].d(T)[sp].d([m5C])[sp].d([m5C])[sp].d(A)[sp].d(G)[sp].[moe]([m5C])p.[moe]([m5C])p.[moe](T)[sp].[moe](T)}$$$$ (last 3' nucleoside missing) | 1.5 score 0-7
RNA1{[moe](A)[sp].[moe](T)p.[moe](G)[sp].[moe](T)[sp].[moe](T)[sp].d(A)[sp].d(A)[sp].d(T)[sp].d(A)[sp].d([m5C])[sp].d(T)[sp].d(T)[sp].d(T)[sp].d(T)[sp].d(T)[sp].[moe]([m5C])[sp].[moe]([m5C])p.[moe](A)[sp].[moe](G)}$$$$ (last 3' nucleoside missing) | 0.25 score 0-7
RNA1{[moe](G)[sp].[moe](T)p.[moe](G)p.[moe](A)p.[moe]([m5C])[sp].d(T)[sp].d(A)[sp].d(A)[sp].d([m5C])[sp].d(A)[sp].d(G)[sp].d(T)[sp].d(A)[sp].d(T)[sp].d(G)[sp].[moe](T)p.[moe](T)p.[moe](T)[sp].[moe](T)}$$$$ (last 3' nucleoside missing) | 2.25 score 0-7
RNA1{[moe](A)[sp].[moe](A)p.[moe](T)p.[moe](T)p.[moe]([m5C])[sp].d(T)[sp].d(T)[sp].d(G)[sp].d([m5C])[sp].d(T)[sp].d(T)[sp].d([m5C])[sp].d(A)[sp].d(A)[sp].d([m5C])[sp].[moe]([m5C])p.[moe](A)p.[moe](T)[sp].[moe]([m5C])}$$$$ (last 3' nucleoside missing) | 1.25 score 0-7
RNA1{[moe]([m5C])[sp].[moe](T)p.[moe](G)p.[moe]([m5C])p.[moe](A)[sp].d([m5C])[sp].d(A)[sp].d([m5C])[sp].d(T)[sp].d(T)[sp].d(T)[sp].d([m5C])[sp].d([m5C])[sp].d(T)[sp].d([m5C])[sp].[moe]([m5C])p.[moe](T)p.[moe]([m5C])[sp].[moe](A)}$$$$ (last 3' nucleoside missing) | 0 score 0-7
RNA1{[moe](A)[sp].[moe](G)[sp].[moe]([m5C])p.[moe]([m5C])p.[moe](A)[sp].d(A)[sp].d(T)[sp].d(A)[sp].d(T)[sp].d(T)[sp].d(T)[sp].d(A)[sp].d(T)[sp].d(A)[sp].d(G)[sp].[moe](G)p.[moe](T)p.[moe](G)[sp].[moe]([m5C])}$$$$ (last 3' nucleoside missing) | 1 score 0-7
RNA1{[moe](A)[sp].[moe](G)p.[moe]([m5C])p.[moe]([m5C])p.[moe](A)p.d(A)[sp].d(T)[sp].d(A)[sp].d(T)[sp].d(T)[sp].d(T)[sp].d(A)[sp].d(T)[sp].d(A)[sp].d(G)[sp].[moe](G)p.[moe](T)p.[moe](G)[sp].[moe]([m5C])}$$$$ (last 3' nucleoside missing) | 1 score 0-7
